Measurements as given in patent publication US12528805B2, “Solid forms of emetine” (Acer Therapeutics, Inc., priority 2020, dated 2026).
Where a name gives a salt, the structure may show the parent alone.

Key:
[1] = Solubility screening by solvent addition technique (approximate solubility); format: physicochemical; settings: thermodynamic from solid; water; at ambient temperature; small, fine particles remained (Experiment 25)
[2] = Solid form stability on storage (XRPD re-analysis); format: physicochemical
Method: The solids were dried under vacuum at ambient temperature (about 23° C.) for 17 h. The solids on the XRPD plate were stored at 40° C./75% RH for 22 h then re-analyzed. Amorphous and a mixture of Compound I dihydrochloride Form 2 and Form 6 were obtained (Table 7).
The solids were isolated by filtration after a total of 27.5 h at 5° C. and washed with 0.6 mL of cold acetone or 3×0.6 mL of cold heptane. The solids were dried under vacuum at ambient temperature (about 23° C.) for 17 h. The solids on the XRPD plate were stored at 40° C./75% RH for 22 h then re-analyzed by XRPD. Results, which are summarized in Table 8, show mixtures of Compound I dihydrochloride Forms 5 and 6, 5, 2 and 1, and 2 were obtained.
1.0 mL of water was added to approximately 300 mg of Compound I dihydrochloride Form 1. The resulting mixture was magnetically stirred at 50° C. over about 15 min, then stirred at 50° C. for 0.25 h. The solution was polish filtered (0.45 μm PTFE filter) into a 2 mL push-cap vial and then stirred at 50° C. for 0.25 h, prior to cooling to 5° C. at 0.1° C./min. After 62 h at 5° C., the experiment was sub-sampled and the solid was analyzed by XRPD. The material on the XRPD plate was dried under vacuum at 35° C. under a stream of wet nitrogen (20-38% RH) for about 9 h and then re-analyzed by XRPD. The material on the XRPD plate was stored at 25° C./60% RH for 22 h and then re-analyzed by XRPD. After a total of 87 h at 5° C., solids were isolated by centrifugation (0.22 μm nylon filter) and analyzed by XRPD. The solids were air-dried at ambient temperature (about 22° C.) for 24 h.
Small-scale crystallization Experiment 7 was sub-sampled prior to ASA and after ASA was complete, with solids isolated by centrifugation (0.22 μm nylon filter) and analyzed by XRPD.
Approximately 10 g of Compound I dihydrochloride Form 1 was dissolved in 67 mL of ethanol:water 99:1 v/v at about 60° C. (initial concentration: 150 mg/mL). Polish filtration was carried out (0.2 μm PTFE filter). The solution was transferred to a 250 mL vessel at 60° C. and stirred at 50° C. (solution temperature) and 300 rpm for about 5 min. The solution was seeded with about 100 mg (1 wt. %) of Compound I dihydrochloride Form 2, isolated from small-scale crystallization Experiments 12 and 13, from example 4 above. The seed dissolved rapidly. Anti-solvent addition of 10 mL of heptane (1 volume) was carried out at 2 vol/h (Heptane content of 13%). The solution was re-seeded with a further 100 mg (1 wt. %) of Form 2, isolated from small-scale crystallization Experiment 12. The seed persisted and a slurry formed. The slurry was stirred at 50° C. for 1 h and then anti-solvent addition of 131 mL of heptane at 1.5 vol/h was carried out, to reach 60% heptane. […] An additional 2 volumes of ethanol:water 99:1 v/v was added at the beginning of the ASA to mobilize the slurry. Once ASA was complete, the slurry was cooled to 5° C. at 0.1° C./min. The experiment was sub-sampled after about 2 h at 5° C. The slurry was thick but mixing. After 3.5 h at 5° C., an additional 3.6 mL of water was added to increase the water content to 2% (ethanol:water:heptane ratio of 39:2:59 v/v/v). The experiment was sub-sampled again after 2 h at 5° C. with additional water. After a total of 10 h at 5° C., solids were isolated by filtration and washed with 2 volumes of cold (5° C.) ethanol:heptane 40:60 v/v. The solids were filtered and dried under vacuum at ambient temperature (about 21° C.) for 14.5 h, then analyzed by XRPD.

[3] = Dynamic vapor sorption (DVS); settings: for DVS uptake: 25° C.
[4] = stored at 40° C./75% RH for 22 h

CC[C@H]1CN2CCc3cc(OC)c(OC)cc3[C@@H]2C[C@@H]1C[C@H]1NCCc2cc(OC)c(OC)cc21 [Compound I dihydrochloride Form 1, (2S,3R,11bS)-2-(((R)-6,7-dimethoxy-1,2,3,4-tetrahydroisoquinolin-1-yl)methyl)-3-ethyl-9,10-dimethoxy-1,3,4,6,7,11b-hexahydro-2H-pyrido[2,1-a]isoquinoline dihydrochloride]
solubility [1]: > 200 mg/mL

CC[C@H]1CN2CCc3cc(OC)c(OC)cc3[C@@H]2C[C@@H]1C[C@H]1NCCc2cc(OC)c(OC)cc21 [Compound I dihydrochloride Form 2, (2S,3R,11bS)-2-(((R)-6,7-dimethoxy-1,2,3,4-tetrahydroisoquinolin-1-yl)methyl)-3-ethyl-9,10-dimethoxy-1,3,4,6,7,11b-hexahydro-2H-pyrido[2,1-a]isoquinoline dihydrochloride]
Solid form by XRPD after storage ([2]; stored at 40° C./75% RH for 22 h, dihydrochloride): maintained

CC[C@H]1CN2CCc3cc(OC)c(OC)cc3[C@@H]2C[C@@H]1C[C@H]1NCCc2cc(OC)c(OC)cc21 [Compound I dihydrochloride Form 6, (2S,3R,11bS)-2-(((R)-6,7-dimethoxy-1,2,3,4-tetrahydroisoquinolin-1-yl)methyl)-3-ethyl-9,10-dimethoxy-1,3,4,6,7,11b-hexahydro-2H-pyrido[2,1-a]isoquinoline dihydrochloride]
Solid form by XRPD after storage ([2]; storage at ambient conditions): maintained | Solid form by XRPD after storage ([2]; stored at 25° C./60% RH for 22 h): maintained

CC[C@H]1CN2CCc3cc(OC)c(OC)cc3[C@@H]2C[C@@H]1C[C@H]1NCCc2cc(OC)c(OC)cc21 [Compound I dihydrochloride Form 7B, (2S,3R,11bS)-2-(((R)-6,7-dimethoxy-1,2,3,4-tetrahydroisoquinolin-1-yl)methyl)-3-ethyl-9,10-dimethoxy-1,3,4,6,7,11b-hexahydro-2H-pyrido[2,1-a]isoquinoline dihydrochloride]
DVS uptake ([3]; between 20-70% RH, cycle 2 sorption, material of large-scale Experiment 4 dried under vacuum at about 20° C. for 17.5 h): 8.7% | DVS uptake ([3]; between 40-80% RH, cycle 1 sorption): about 3% | DVS uptake ([3]; between 80-90% RH, cycle 1 sorption): large uptake | Relative humidity of deliquescence ([3]; post-DVS XRPD: amorphous material was recovered): about 90 % RH

CC[C@H]1CN2CCc3cc(OC)c(OC)cc3[C@@H]2C[C@@H]1C[C@H]1NCCc2cc(OC)c(OC)cc21 [Compound I dihydrochloride Form 8, (2S,3R,11bS)-2-(((R)-6,7-dimethoxy-1,2,3,4-tetrahydroisoquinolin-1-yl)methyl)-3-ethyl-9,10-dimethoxy-1,3,4,6,7,11b-hexahydro-2H-pyrido[2,1-a]isoquinoline dihydrochloride]
Solid form by XRPD after storage ([2]; 1 h under ambient conditions): converted to Compound I dihydrochloride Form 2 | Solid form by XRPD after storage ([2]; 3 h under ambient conditions): converted to Form 2

CC[C@H]1CN2CCc3cc(OC)c(OC)cc3[C@@H]2C[C@@H]1C[C@H]1NCCc2cc(OC)c(OC)cc21 [Form 2 with a trace Form 1]
Solid form by XRPD after storage [2, 4]: Compound I dihydrochloride Form 2 was obtained

CC[C@H]1CN2CCc3cc(OC)c(OC)cc3[C@@H]2C[C@@H]1C[C@H]1NCCc2cc(OC)c(OC)cc21 [mixture of Form 5 and Form 6]
Solid form by XRPD after storage ([2]; storage at 5° C. for about 2 weeks): Conversion to Form 5 | Solid form by XRPD after storage [2, 4]: conversion back to Compound I dihydrochloride Form 5
